Laboratory results: patent US11834430B2, “Compounds useful as inhibitors of isoprenylcysteine carboxyl methyltransferase” (AGENCY FOR SCIENCE, TECHNOLOGY AND RESEARCH, priority 2017, dated 2023)
Several values for one entry are separate records, joined by “and”; a condition that tells them apart may be missing. Equal entries are not always repeated.

target: human ICMT (Homo sapiens (Human), UniProt O60725); assay: ICMT biochemical assay (Methyltransferase-Glo); conditions: ICMT membrane extract from Sf-9 cells; 30 min preincubation, 90 min reaction
Sequence (O60725 whole entry): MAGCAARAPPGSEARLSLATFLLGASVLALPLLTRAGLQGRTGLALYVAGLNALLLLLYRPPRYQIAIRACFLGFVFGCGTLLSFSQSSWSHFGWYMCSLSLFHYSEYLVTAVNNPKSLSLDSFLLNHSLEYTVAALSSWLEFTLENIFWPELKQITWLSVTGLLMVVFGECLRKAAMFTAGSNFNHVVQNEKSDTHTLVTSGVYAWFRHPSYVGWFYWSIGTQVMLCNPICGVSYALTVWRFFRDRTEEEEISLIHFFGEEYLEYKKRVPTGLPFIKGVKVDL
Experimental: Recombinant human ICMT was prepared by infection of Sf9 cells with a recombinant baculovirus containing the entire open reading frame of the human ICMT cDNA.
Cells producing ICMT were harvested 66 hours post-infection. The cells are homogenized and resuspended in 5 mM NaHPO4 (pH 7.0), and a cocktail of protease inhibitors. The membrane was pelleted, after removal of nuclei and debris, at 100,000×g for 1 hour. Membranes were resuspended in 5 mM NaHPO4 (pH 7.0) with 5 mM EDTA at 10-12 mg/ml. The suspension was stored at −80° C. in multiple aliquots.
An ICMT enzymatic assay was developed using Promega's Methyltransferase-GloTMreagents. In the assay, ICMT catalyzes the methylation of the N-Acetyl-S-farnesyl-L-cysteine by transferring a methyl group from SAM to the farnesylated cysteine and further converts the SAM to SAH. The methyltransferase activity is measured based on the amount of SAH produced from the reaction through the use of coupling enzymes that convert the SAH to ATP. The MTase-Glo detection solution then catalyzes the formation of light from ATP.
A final concentration of 2.0 μM and 20 μM of SAM and peptide were added and further incubated for 90 minutes at room temperature before adding the MTase Glo and detection reagent. Reaction signals were detected using microplate readers on luminescent mode (Satire Tecan). The IC50 was determined by nonlinear regression, using GraphPad Prism version, 5.03.

| IC50 | SMILES |
| --- | --- |
| 560 nM | N#Cc1ccc(OCCOc2cccc(-n3cncn3)c2)cc1 [Compound 1, 4-(2-(3-(1H-1,2,4-triazol-1-yl)phenoxy)ethoxy)benzonitrile] |
| 630 nM and 490 nM | N#Cc1ccc(OCCOc2cccc(-c3cncs3)c2)cc1 [Compound 3, 4-(2-(3-(thiazol-5-yl)phenoxy)ethoxy)benzonitrile] |
| 260 nM and 220 nM and 390 nM | Cc1nccn1-c1cccc(OCCOc2ccc(C#N)nc2)c1 [Compound 4, 5-(2-(3-(2-methyl-1H-imidazol-1-yl)phenoxy)ethoxy)picolinonitrile] |
| 2 nM and 1 nM and 2.4 nM | Cc1nccn1-c1cccc(OCCOc2ccc(C#N)cc2F)c1 [Compound 6, 3-fluoro-4-(2-(3-(2-methyl-1H-imidazol-1-yl)phenoxy)ethoxy)benzonitrile] |
| 3 nM | Cn1nccc1-c1cccc(OCCOc2ccc(C#N)cc2Cl)c1 [Compound 7, 3-chloro-4-(2-(3-(1-methyl-1H-pyrazol-5-yl)phenoxy)ethoxy)benzonitrile] |
| 0.2 nM and 0.36 nM | COc1cc(C#N)ccc1OCCOc1cccc(-n2ccnc2C)c1 [Compound 8, 3-methoxy-4-(2-(3-(2-methyl-1H-imidazol-1-yl)phenoxy)ethoxy)benzonitrile] |
| 0.1 nM and 0.18 nM | N#Cc1ccc(OCCOc2cccc(-n3ccnc3C3CC3)c2)c(Cl)c1 [Compound 9, 3-chloro-4-(2-(3-(2-cyclopropyl-1H-imidazol-1-yl)phenoxy)ethoxy)benzonitrile] |
| 80 nM | Cc1nccn1-c1cccc(OCCOc2ccc(C#N)cn2)c1 [Compound 10, 6-(2-(3-(2-methyl-1H-imidazol-1-yl)phenoxy)ethoxy)nicotinonitrile] |
| 20 nM | N#Cc1ccc(OCCOc2cccc(-c3cncs3)c2)c(Cl)c1 [Compound 11, 3-chloro-4-(2-(3-(thiazol-5-yl)phenoxy)ethoxy)benzonitrile] |
| 210 nM | N#Cc1ccc(OCCOc2cccc(-c3cncs3)c2)c(F)c1 [Compound 12, 3-fluoro-4-(2-(3-(thiazol-5-yl)phenoxy)ethoxy)benzonitrile] |
| 11 nM | Cc1ccc(OCCOc2cccc(-n3ccnc3C)c2)c(C#N)c1 [Compound 13, 5-methyl-2-(2-(3-(2-methyl-1H-imidazol-1-yl)phenoxy)ethoxy)benzonitrile] |
| 15 nM | Cn1nccc1-c1cccc(OCCOc2ccc(C#N)cc2F)c1 [Compound 14, 3-fluoro-4-(2-(3-(1-methyl-1H-pyrazol-5-yl)phenoxy)ethoxy)benzonitrile] |
| 1.1 nM and 0.9 nM | COc1cc(C#N)ccc1OCCOc1cccc(-c2ccnn2C)c1 [Compound 15, 3-methoxy-4-(2-(3-(1-methyl-1H-pyrazol-5-yl)phenoxy)ethoxy)benzonitrile] |
| 8 nM and 11 nM | COc1cc(C#N)ccc1OCCOc1cccc(-c2cncs2)c1 [Compound 16, 3-methoxy-4-(2-(3-(thiazol-5-yl)phenoxy)ethoxy)benzonitrile] |
| 16 nM | N#Cc1ccc(OCCOc2cccc(-n3ccnc3C3CC3)c2)c(F)c1 [Compound 17, 4-(2-(3-(2-cyclopropyl-1H-imidazol-1-yl)phenoxy)ethoxy)-3-fluorobenzonitrile] |
| 3 nM | Cc1ccc(OCCOc2cccc(-c3ccnn3C)c2)c(C#N)c1 [Compound 18, 5-methyl-2-(2-(3-(1-methyl-1H-pyrazol-5-yl)phenoxy)ethoxy)benzonitrile] |
| 4.5 nM | COc1cc(C#N)ccc1OCCOc1cccc(-n2ccnc2C2CC2)c1 [Compound 19, 4-(2-(3-(2-cyclopropyl-1H-imidazol-1-yl)phenoxy)ethoxy)-3-methoxybenzonitrile] |
| 0.17 nM and 0.16 nM | N#Cc1ccc(OCCOc2cccc(-n3ccnc3C3CC3)c2)cc1 [Compound 20, 4-(2-(3-(2-cyclopropyl-1H-imidazol-1-yl)phenoxy)ethoxy)benzonitrile] |
| 298 nM | N#Cc1ccc(OCCOc2cccc(-n3cnnc3)c2)cc1 [Compound 21, 4-(2-(3-(4H-1,2,4-triazol-4-yl)phenoxy)ethoxy)benzonitrile] |
| 3 nM | Cc1nccn1-c1cccc(OC(C)COc2ccc(C#N)cc2Cl)c1 (stereo not drawn) [Compound 22, 3-chloro-4-(2-(3-(2-methyl-1H-imidazol-1-yl)phenoxy)propoxy)benzonitrile] |
| 61 nM | Cc1nccn1-c1cccc(OC(C)COc2ccc(C#N)cc2F)c1 (stereo not drawn) [Compound 23, 3-fluoro-4-(2-(3-(2-methyl-1H-imidazol-1-yl)phenoxy)propoxy)benzonitrile] |

| IC50 | SMILES |
| --- | --- |
| 1 nM | Cc1nccn1-c1cc(OCCOc2ccc(C#N)cc2Cl)ccn1 [Compound 24, 3-chloro-4-(2-((2-(2-methyl-1H-imidazol-1-yl)pyridin-4-yl)oxy)ethoxy)benzonitrile] |
| 23 nM | Cc1nccn1-c1cccc(OCC(C)Oc2ccc(C#N)cc2F)c1 (stereo not drawn) [Compound 25, 3-fluoro-4-((1-(3-(2-methyl-1H-imidazol-1-yl)phenoxy)propan-2-yl)oxy)benzonitrile] |
| 69 nM | C#Cc1ccc(OCCOc2cccc(-n3ccnc3C)c2)cc1 [Compound 26, 1-(3-(2-(4-ethynylphenoxy)ethoxy)phenyl)-2-methyl-1H-imidazole] |
| 290 nM | Cc1cc(F)ccc1OCCOc1cccc(-c2ccnn2C)c1 [Compound 27, 5-(3-(2-(4-fluoro-2-methylphenoxy)ethoxy)phenyl)-1-methyl-1H-pyrazole] |
| 1.6 nM | CC(COc1cccc(-n2ccnc2C2CC2)c1)Oc1ccc(C#N)cc1F (stereo not drawn) [Compound 28, 4-((1-(3-(2-cyclopropyl-1H-imidazol-1-yl)phenoxy)propan-2-yl)oxy)-3-fluorobenzonitrile] |
| 0.08 nM | COc1cc(C#N)ccc1OC(C)COc1cccc(-n2ccnc2C)c1 (stereo not drawn) [Compound 29, 3-methoxy-4-((1-(3-(2-methyl-1H-imidazol-1-yl)phenoxy)propan-2-yl)oxy)benzonitrile] |
| 1.6 nM | Cc1cc(C#N)ccc1OC(C)COc1cccc(-c2ccnn2C)c1 (stereo not drawn) [Compound 30, 3-methyl-4-((1-(3-(1-methyl-1H-pyrazol-5-yl)phenoxy)propan-2-yl)oxy)benzonitrile] |
| 1.2 nM | COc1cc(C#N)ccc1OC(C)COc1cccc(-c2ccnn2C)c1 (stereo not drawn) [Compound 31, 3-methoxy-4-((1-(3-(1-methyl-1H-pyrazol-5-yl)phenoxy)propan-2-yl)oxy)benzonitrile] |
| 200 nM | Cc1nccn1-c1cccc(O[C@H](C)COc2ccc(C#N)cc2Cl)c1 [Compound 32, (R)-3-chloro-4-(2-(3-(2-methyl-1H-imidazol-1-yl)phenoxy)propoxy)benzonitrile] |
| 1.5 nM | Cc1nccn1-c1cccc(O[C@@H](C)COc2ccc(C#N)cc2Cl)c1 [Compound 33, (S)-3-chloro-4-(2-(3-(2-methyl-1H-imidazol-1-yl)phenoxy)propoxy)benzonitrile] |
| 1470 nM | Cc1nccn1-c1cccc(O[C@H](C)COc2ccc(C#N)cc2F)c1 [Compound 34, (R)-3-fluoro-4-(2-(3-(2-methyl-1H-imidazol-1-yl)phenoxy)propoxy)benzonitrile] |
| 3.6 nM | Cc1nccn1-c1cccc(O[C@@H](C)COc2ccc(C#N)cc2F)c1 [Compound 35, (S)-3-fluoro-4-(2-(3-(2-methyl-1H-imidazol-1-yl)phenoxy)propoxy)benzonitrile] |
| 140 nM | Cc1nccn1-c1cccc(OCCOc2ccc(C#N)cc2OC(F)(F)F)c1 [Compound 36, 4-(2-(3-(2-methyl-1H-imidazol-1-yl)phenoxy)ethoxy)-3-(trifluoromethoxy)benzonitrile] |
| 310 nM | N#Cc1ccc(OCCOc2cccc(-n3cnnc3)c2)c(F)c1 [Compound 38, 4-(2-(3-(4H-1,2,4-triazol-4-yl)phenoxy)ethoxy)-3-fluorobenzonitrile] |
| 4.7 nM | Cc1cc(C#N)ccc1O[C@H](C)COc1cccc(-c2ccnn2C)c1 [Compound 39, (R)-3-methyl-4-((1-(3-(1-methyl-1H-pyrazol-5-yl)phenoxy)propan-2-yl)oxy)benzonitrile] |
| 9.5 nM | Cc1cc(C#N)ccc1O[C@@H](C)COc1cccc(-c2ccnn2C)c1 [Compound 40, (S)-3-methyl-4-((1-(3-(1-methyl-1H-pyrazol-5-yl)phenoxy)propan-2-yl)oxy)benzonitrile] |
| 12 nM | C[C@@H](COc1cccc(-n2ccnc2C2CC2)c1)Oc1ccc(C#N)cc1F [Compound 42, (S)-4-((1-(3-(2-cyclopropyl-1H-imidazol-1-yl)phenoxy)propan-2-yl)oxy)-3-fluorobenzonitrile] |
| 780 nM | Cc1nccn1-c1cccc(OCC(C)Oc2ccc(C#N)cc2Cl)c1 (stereo not drawn) [Compound 44, 3-chloro-4-((1-(3-(2-methyl-1H-imidazol-1-yl)phenoxy)propan-2-yl)oxy)benzonitrile] |
| 0.64 nM | COc1cc(C#N)ccc1O[C@H](C)COc1cccc(-c2ccnn2C)c1 [Compound 48, (R)-3-methoxy-4-((1-(3-(1-methyl-1H-pyrazol-5-yl)phenoxy)propan-2-yl)oxy)benzonitrile] |
| 0.3 nM | Cc1cc(C#N)ccc1O[C@@H](C)COc1cccc(-n2ccnc2C2CC2)c1 [Compound 49, (S)-4-((1-(3-(2-cyclopropyl-1H-imidazol-1-yl)phenoxy)propan-2-yl)oxy)-3-methylbenzonitrile] |
| 12 nM | Fc1cc(Cl)ccc1OCCOc1cccc(-n2ccnc2C2CC2)c1 [Compound 50, 1-(3-(2-(4-chloro-2-fluorophenoxy)ethoxy)phenyl)-2-cyclopropyl-1H-imidazole] |
